This passage reports EC50 and half-life results from patent US10800772B2 (Gilead Sciences, Inc., priority 2016, dated 2020).

The test system of one data set is HIV-IIIb IN T174I DE. The data set can be described thus: Antiviral assay in MT4 cells, HIV-IIIb IN T174I DE virus (from dose escalation passaging). It counts as cell-based, HIV-1. The following applies: Human immunodeficiency virus 1, IIIB, MT4, 120 h, read-out: T174I DE EC50, MT4 cells, HIV-IIIb IN T174I DE (dose escalation), 5 days, CellTiter-Glo. The method in brief: (§1)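 First, MT4 cells are infected with HIV-IIIb for 3 h at 37 °C (0.004 m.o.i.). Next, 2000 cells are added per well to 3-fold serial compound dilutions and cultured for 5 days. Finally, CellTiter-Glo chemiluminescence is read and EC50 is derived from the 50% signal decrease.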

The subject of another data set is HIV-IIIb (wildtype). Put plainly: Antiviral assay in MT4 cells, HIV-IIIb wildtype. It counts as cell-based, HIV-1. The settings on record: Human immunodeficiency virus 1, IIIB, MT4, 120 h, read-out: WT EC50. The essentials: as §1
The nature of data set [1]: Hum MS stability (human microsomal stability half-life). The following applies: human microsomes.
For a further data set, the system named is HIV-IIIb IN T174I BT. Put plainly: Antiviral assay in MT4 cells, HIV-IIIb IN T174I BT virus (from viral breakthrough). It counts as cell-based, HIV-1. The following applies: Human immunodeficiency virus 1, IIIB, MT4, 120 h, read-out: T174I BT EC50, MT4 cells, HIV-IIIb IN T174I BT (viral breakthrough), 5 days, CellTiter-Glo. The essentials: as §1
Background: Cellular ATP, detected with luciferase, serves as a proxy for viable cell number.

With `Cc1cc2nc(-c3ccc4c(c3)c(N3CCN(C)CC3)nn4C)sc2c(-c2ccc(Cl)cc2)c1[C@H](OC1CC1)C(=O)O` [Compound 103, (S)-2-(7-(4-chlorophenyl)-5-methyl-2-(1-methyl-3-(4-methylpiperazin-1-yl)-1H-indazol-5-yl)benzo[d]thiazol-6-yl)-2-cyclopropoxyacetic acid], the EC50 amounted to 367 nM in the data set with HIV-IIIb IN T174I DE, 32 nM with HIV-IIIb (wildtype) and 267 nM in the data set with HIV-IIIb IN T174I BT. In data set [1], this molecule showed a half-life of 2.47 h.

With `Cc1cc2nc(-c3ccc4c(c3)c(N3CC(C)(C)N(C)C3=O)nn4C)sc2c(-c2ccc(Cl)cc2)c1[C@H](OC(C)(C)C)C(=O)O` [Compound 122, (S)-2-(tert-butoxy)-2-(7-(4-chlorophenyl)-5-methyl-2-(1-methyl-3-(3,4,4-trimethyl-2-oxoimidazolidin-1-yl)-1H-indazol-5-yl)benzo[d]thiazol-6-yl)acetic acid], the EC50 in the data set with HIV-IIIb IN T174I DE was 3810 nM; in the data set on HIV-IIIb (wildtype), 14 nM; in the data set with HIV-IIIb IN T174I BT it was 1440 nM. Besides, the half-life in data set [1] worked out at 4.48 h.

Consider `COCCN1C(=O)N(c2nn(C)c3ccc(-c4nc5cc(C)c([C@H](OC(C)(C)C)C(=O)O)c(-c6ccc(Cl)cc6)c5s4)cc23)CC1(C)C` [Compound 123, (S)-2-(tert-butoxy)-2-(7-(4-chlorophenyl)-2-(3-(3-(2-methoxyethyl)-4,4-dimethyl-2-oxoimidazolidin-1-yl)-1-methyl-1H-indazol-5-yl)-5-methylbenzo[d]thiazol-6-yl)acetic acid], for which the EC50 with HIV-IIIb IN T174I DE was 7090 nM; in the data set with HIV-IIIb (wildtype), 11 nM; in the data set on HIV-IIIb IN T174I BT it was 1450 nM. In data set [1], this molecule gave a half-life of 1.6 h.

For the molecule `COCCN1CCC(c2nn(C)c3ccc(-c4nc5cc(C)c([C@H](OC(C)(C)C)C(=O)O)c(-c6ccc(Cl)cc6)c5s4)cc23)CC1` [Compound 125, (S)-2-(tert-butoxy)-2-(7-(4-chloro-phenyl)-2-(3-(1-(2-methoxyethyl)piperidin-4-yl)-1-methyl-1H-indazol-5-yl)-5-methylbenzo[d]thiazol-6-yl) acetic acid], the figures for the EC50 with HIV-IIIb IN T174I DE, with HIV-IIIb (wildtype) and in the data set on HIV-IIIb IN T174I BT were 715 nM, 8 nM and 400 nM, respectively. This molecule also had a half-life in data set [1] of 4.38 h.

Turning to `COC1(C)CN(c2nn(C)c3ccc(-c4nc5cc(C)c([C@H](OC(C)(C)C)C(=O)O)c(-c6ccc(Cl)cc6)c5s4)cc23)C1` [Compound 131, (S)-2-(tert-butoxy)-2-(7-(4-chloro-phenyl)-2-(3-(3-methoxy-3-methylazetidin-1-yl)-1-methyl-1H-indazol-5-yl)-5-methylbenzo[d]thiazol-6-yl) acetic acid], the values for the EC50 in the data set on HIV-IIIb IN T174I DE, with HIV-IIIb (wildtype) and with HIV-IIIb IN T174I BT were 3740 nM, 10 nM and 7950 nM, respectively. The molecule further displayed a half-life in data set [1] of 4.15 h.

Turning to `CCN1CCN(c2nn(C)c3ccc(-c4nc5cc(C)c([C@H](OC(C)(C)C)C(=O)O)c(-c6ccc(Cl)cc6)c5s4)cc23)CC1` [Compound 133, (S)-2-(tert-butoxy)-2-(7-(4-chloro-phenyl)-2-(3-(4-ethylpiperazin-1-yl)-1-methyl-1H-indazol-5-yl)-5-methylbenzo[d]thiazol-6-yl) acetic acid], the EC50 was found to be 439 nM in the data set on HIV-IIIb IN T174I DE, 3 nM with HIV-IIIb (wildtype) and 434 nM in the data set with HIV-IIIb IN T174I BT. This molecule also had a half-life in data set [1] of 5.82 h.

As for `COCCOC1CN(c2nn(C)c3ccc(-c4nc5cc(C)c([C@H](OC(C)(C)C)C(=O)O)c(-c6ccc(Cl)cc6)c5s4)cc23)C1` [Compound 134, (S)-2-(tert-butoxy)-2-(7-(4-chloro-phenyl)-2-(3-(3-(2-methoxyethoxy)azetidin-1-yl)-1-methyl-1H-indazol-5-yl)-5-methylbenzo[d]thiazol-6-yl) acetic acid], the EC50 came to 2240 nM in the data set with HIV-IIIb IN T174I DE, 13 nM in the data set with HIV-IIIb (wildtype) and 1160 nM in the data set with HIV-IIIb IN T174I BT. Moreover, the half-life in data set [1] was found to be 1.48 h.

As to `COCCN(C)C1CN(c2nn(C)c3ccc(-c4nc5cc(C)c([C@H](OC(C)(C)C)C(=O)O)c(-c6ccc(Cl)cc6)c5s4)cc23)C1` [Compound 145, (S)-2-(tert-butoxy)-2-(7-(4-chloro-phenyl)-2-(3-(3-((2-methoxyethyl) (methyl)amino)azetidin-1-yl)-1-methyl-1H-indazol-5-yl)-5-methylbenzo[d]thiazol-6-yl) acetic acid], the results for the EC50 in the data set on HIV-IIIb IN T174I DE, in the data set with HIV-IIIb (wildtype) and with HIV-IIIb IN T174I BT were 2170 nM, 12 nM and 1590 nM, respectively. Further, the half-life in data set [1] was 2.15 h.

On to `Cc1cc2nc(-c3ccc4c(c3)c(C3CCN(C5CC(O)C5)CC3)nn4C)sc2c(-c2ccc(Cl)cc2)c1[C@H](OC(C)(C)C)C(=O)O` (stereo partly drawn) [Compound 156, (S)-2-(tert-butoxy)-2-(7-(4-chloro-phenyl)-2-(3-(1-((1s,3s)-3-hydroxy-cyclobutyl)piperidin-4-yl)-1-methyl-1H-indazol-5-yl)-5-methylbenzo[d]thiazol-6-yl) acetic acid], for which the figures for the EC50 with HIV-IIIb IN T174I DE, in the data set with HIV-IIIb (wildtype) and in the data set with HIV-IIIb IN T174I BT were 197 nM, 11 nM and 126 nM, respectively. Moreover, the half-life in data set [1] turned out to be 4.95 h.

For the molecule `Cc1cc2nc(-c3ccc4c(c3)c(C3CCN([C@H]5CCN(C)C5)CC3)nn4C)sc2c(-c2ccc(Cl)cc2)c1[C@H](OC(C)(C)C)C(=O)O` [Compound 163, (S)-2-(tert-butoxy)-2-(7-(4-chloro-phenyl)-5-methyl-2-(1-methyl-3-(1-((S)-1-methyl-pyrrolidin-3-yl)piperidin-4-yl)-1H-indazol-5-yl)benzo[d]thiazol-6-yl)acetic acid], the EC50 amounted to 324 nM with HIV-IIIb IN T174I DE, 20 nM in the data set with HIV-IIIb (wildtype) and 204 nM in the data set on HIV-IIIb IN T174I BT. The molecule further showed a half-life in data set [1] of 2.12 h.

`CC(=O)N1CC[C@H](N2CCC(c3nn(C)c4ccc(-c5nc6cc(C)c([C@H](OC(C)(C)C)C(=O)O)c(-c7ccc(Cl)cc7)c6s5)nc34)CC2)C1` [Compound 170, (S)-2-(2-(3-(1-((S)-1-acetyl-pyrrolidin-3-yl)piperidin-4-yl)-1-methyl-1H-pyrazolo[4,3-b]pyridin-5-yl)-7-(4-chlorophenyl)-5-methylbenzo [d]thiazol-6-yl)-2-(tert-butoxy) acetic acid]: the EC50 in the data set on HIV-IIIb IN T174I DE was 112 nM; in the data set on HIV-IIIb (wildtype), 2 nM; in the data set with HIV-IIIb IN T174I BT, 57 nM. Moreover, in data set [1], the half-life amounted to 0.533 h.

As to `Cc1cc2nc(-c3ccc4c(n3)c(C3CCN([C@H]5CCN(C)C5)CC3)nn4C)sc2c(-c2ccc(Cl)cc2)c1[C@H](OC(C)(C)C)C(=O)O` [Compound 172, (S)-2-(tert-butoxy)-2-(7-(4-chloro-phenyl)-5-methyl-2-(1-methyl-3-(1-((S)-1-methyl-pyrrolidin-3-yl)piperidin-4-yl)-1H-pyrazolo[4,3-b]pyridin-5-yl)benzo[d]thiazol-6-yl)acetic acid], the EC50 with HIV-IIIb IN T174I DE is 118 nM; in the data set on HIV-IIIb (wildtype) it was 5 nM; in the data set on HIV-IIIb IN T174I BT, 54 nM. In data set [1], this molecule yielded a half-life of 0.933 h.

Regarding `Cc1cc2nc(-c3ccc4c(n3)c(C3CCN(CCN(C)C)CC3)nn4C)sc2c(-c2ccc(Cl)cc2)c1[C@H](OC(C)(C)C)C(=O)O` [Compound 173, (S)-2-(tert-butoxy)-2-(7-(4-chloro-phenyl)-2-(3-(1-(2-(dimethylamino)ethyl)piperidin-4-yl)-1-methyl-1H-pyrazolo[4,3-b]pyridin-5-yl)-5-methylbenzo[d]thiazol-6-yl) acetic acid], the results for the EC50 with HIV-IIIb IN T174I DE, in the data set on HIV-IIIb (wildtype) and with HIV-IIIb IN T174I BT were 89 nM, 2 nM and 45 nM, respectively. Moreover, the half-life in data set [1] amounted to 1.2 h.

On to `Cc1cc2nc(-c3ccc4c(n3)c(C3CCN(C5COC5)CC3)nn4C)sc2c(-c2ccc(Cl)cc2)c1[C@H](OC(C)(C)C)C(=O)O` [Compound 175, (S)-2-(tert-butoxy)-2-(7-(4-chloro-phenyl)-5-methyl-2-(1-methyl-3-(1-(oxetan-3-yl)piperidin-4-yl)-1H-pyrazolo [4,3-b]pyridin-5-yl)benzo[d]thiazol-6-yl) acetic acid], for which the EC50 was 252 nM in the data set with HIV-IIIb IN T174I DE, 3 nM in the data set with HIV-IIIb (wildtype) and 122 nM in the data set on HIV-IIIb IN T174I BT. In addition, the half-life in data set [1] was 5.95 h.

As to `Cc1cc2nc(-c3ccc4c(n3)c(C3CCN(C5CN(C)C5)CC3)nn4C)sc2c(-c2ccc(Cl)cc2)c1[C@H](OC(C)(C)C)C(=O)O` [Compound 184, (S)-2-(tert-butoxy)-2-(7-(4-chloro-phenyl)-5-methyl-2-(1-methyl-3-(1-(1-methylazetidin-3-yl)piperidin-4-yl)-1H-pyrazolo [4,3-b]pyridin-5-yl)benzo[d]thiazol-6-yl) acetic acid], the EC50 in the data set on HIV-IIIb IN T174I DE worked out at 218 nM; in the data set with HIV-IIIb (wildtype), 4 nM; with HIV-IIIb IN T174I BT, 103 nM. Besides, in data set [1], the half-life was found to be 0.767 h.

Take `CC(=O)N1CC(N2CCC(c3nn(C)c4ccc(-c5nc6cc(C)c([C@H](OC(C)(C)C)C(=O)O)c(-c7ccc(Cl)cc7)c6s5)nc34)CC2)C1` [Compound 185, (S)-2-(2-(3-(1-(1-acetylazetidin-3-yl)piperidin-4-yl)-1-methyl-1H-pyrazolo[4,3-b]pyridin-5-yl)-7-(4-chlorophenyl)-5-methylbenzo [d]thiazol-6-yl)-2-(tert-butoxy) acetic acid]: the EC50 with HIV-IIIb IN T174I DE is 66 nM; with HIV-IIIb (wildtype) it was 1 nM; with HIV-IIIb IN T174I BT, 35 nM. The half-life in data set [1] was 0.6 h.

The EC50 is the concentration needed to bring the measured effect to its halfway point. Broadly, the half-life is the time in which the quantity being followed falls by half. Low values mean rapid decline, high ones slow decline.
